Laboratory results reported in patent US11760986B2, “Evolution of proteases” (President and Fellows of Harvard College, priority 2014, dated 2023).

Columns and labels:
[1] = system: HCV protease on the HCV PA-RNAP; settings: host cells incubated with inhibitor 90 min, then HCV protease phage, luminescence after 3 h
Description: Inhibition of PA-RNAP response in host E. coli cells. […] After 3 h of incubation at 37° C., the luminescence of each culture was measured on a Tecan Infinite Pro plate reader and normalized to OD600. In the absence of inhibitor, phage-encoded protease will activate the PA-RNAP leading to robust production of luciferase. Relative dose responses to inhibitors compared to control cells without drug were measured in triplicate.

HCV protease = HCV protease (Hepatitis C virus genotype 1a, UniProt P27958); settings: literature value (refs 35, 36); cited from earlier work
wild-type HCV protease = molecular target: T1, wild-type HCV protease (Hepatitis C virus genotype 1a, UniProt P27958, L1039E/L1040E/I1043Q/I1044E/L1047Q/C1073S/C1078L/I1098T/Q1106K/P1112Q/L1179I/C1185S/N1200S, form not given); assay: In vitro HCV protease inhibition assay with internally quenched fluorescent substrate (HCV RET Substrate 1, Anaspec); format: biochemical; settings: 40 nM protease, 7.5 μM substrate, 30° C., IC50±standard deviation
T1 construct: 6xHis-TEVcutsite-HCV protease 2610 . .; fused on or other part: N-terminal Met-6xHis-TEV site, then an NS4A cofactor peptide ([…], about NS4A 21-33 with C22S and V30N); The peptide is fused in front of NS3 residue 4; The helicase domain is absent; the chain ends at NS3 182
Description: Purification and in vitro assays of evolved HCV variants. HCV protease variants were sub-cloned by Gibson assembly out of the phage genome and into the previously mentioned EP. EPs were transformed into NEB BL21 DE3 chemically competent cells. Starter cultures were grown to saturation, and 2 mL was used to inoculate 500 mL LB. At OD600=0.6, cultures were transferred to 20° C. and induced with 0.5% arabinose for 6 h. Cells were harvested by centrifugation at 5,000 g for 10 m, and resuspended in lysis/bind buffer (50 mM Tris-HCl pH 8.0, 500 mM NaCl, 10% glycerol, 5 mM imidazole). Cells were lysed by sonication for a total of 2 m, and then centrifuged for 20 m at 18,000 g to clarify the lysate. Supernatant was flowed through 0.2 mL His-pur nickel resin spin columns that were equilibrated with binding buffer (Pierce-Thermo). […] Protein concentrations were determined by UV280 on a Nanodrop machine and calculated using an extinction coefficient of 19,000 cm^−1 M^−1 and a molecular weight of 23 kDa.
In vitro assays were performed using the commercial HCV RET Substrate 1 (Anaspec), an internally quenched probe that fluoresces upon proteolytic cleavage, according to the manufacturer's instructions. […] Assays were performed in triplicate, and initial reaction velocities were calculated and normalized to controls without inhibitor. […]

HCV protease D168E [2] = molecular target: T2, HCV protease D168E (Hepatitis C virus genotype 1a, UniProt P27958, L1039E/L1040E/I1043Q/I1044E/L1047Q/C1073S/C1078L/I1098T/Q1106K/P1112Q/L1179I/C1185S/D1194E/N1200S, form not given); format: biochemical; settings: HCV protease D168E; 40 nM protease, 7.5 μM substrate, 30° C.; IC50±standard deviation
T2 construct: 6xHis-TEVcutsite-HCV protease 2610 . .; fused on or other part: N-terminal Met-6xHis-TEV site, then an NS4A cofactor peptide ([…], about NS4A 21-33 with C22S and V30N); The peptide is fused in front of NS3 residue 4; The helicase domain is absent; the chain ends at NS3 182
Description: (§1) Purification and in vitro assays of evolved HCV variants. HCV protease variants were sub-cloned by Gibson assembly out of the phage genome and into the previously mentioned EP. EPs were transformed into NEB BL21 DE3 chemically competent cells. Starter cultures were grown to saturation, and 2 mL was used to inoculate 500 mL LB. At OD600=0.6, cultures were transferred to 20° C. and induced with 0.5% arabinose for 6 h. Cells were harvested by centrifugation at 5,000 g for 10 m, and resuspended in lysis/bind buffer (50 mM Tris-HCl pH 8.0, 500 mM NaCl, 10% glycerol, 5 mM imidazole). Cells were lysed by sonication for a total of 2 m, and then centrifuged for 20 m at 18,000 g to clarify the lysate. Supernatant was flowed through 0.2 mL His-pur nickel resin spin columns that were equilibrated with binding buffer (Pierce-Thermo). Resin was washed with 4 column volumes of wash buffer (50 mM Tris-HCl pH 8.0, 500 mM NaCl, 10% glycerol, 20 mM imidazole). HCV protease was eluted in 4 column volumes of 50 mM Tris-HCl pH 8.0, 500 mM NaCl, 10% glycerol, 200 mM imidazole. Samples were further purified by size exclusion chromatography on a SuperDex 75 10/300 GL column (GE Healthcare). Size exclusion was performed in 50 mM Tris-HCl pH 8.0, 100 mM NaCl, 10% glycerol, 1 mM DTT. Protein concentrations were determined by UV280 on a Nanodrop machine and calculated using an extinction coefficient of 19,000 cm^−1 M^−1 and a molecular weight of 23 kDa.
(§2) In vitro assays were performed using the commercial HCV RET Substrate 1 (Anaspec), an internally quenched probe that fluoresces upon proteolytic cleavage, according to the manufacturer's instructions. Protease and inhibitors were incubated in assay buffer at room temperature for 5 m prior to addition of substrate. […] The assay buffer contained 50 mM Tris HCl pH 8.0, 100 mM NaCl, 20% glycerol, 5 mM DTT. Assays were performed in triplicate, and initial reaction velocities were calculated and normalized to controls without inhibitor. The data was fit to the Hill Equation using Igor Pro with base and max parameters fixed at one and zero respectively.

HCV protease D168E [3] = format: biochemical, hepatitis C virus; settings: D168E versus wild-type HCV protease
Description: as §1, §2

HCV protease D168Y [4] = assay: biochemical; parameters: species or system hepatitis C virus; settings: D168Y versus wild-type HCV protease
Description: as §1, §2

HCV protease D168Y [5] = molecular target: T3, HCV protease D168Y (Hepatitis C virus genotype 1a, UniProt P27958, C1073S/C1078L/C1185S/D1194Y/I1043Q/I1044E/I1098T/L1039E/L1040E/L1047Q/L1179I/N1200S/P1112Q/Q1106K/T1100M/T1173A); assay: biochemical
T3 construct: 6xHis (N); TEV cleavage site (N); NS4a cofactor peptide (fused in the construct, before NS3) (N); made in house; host or cells: E. coli NEB BL21 DE3
Description: as §1, §2

| SMILES | inhibition of cellular gene expression arising from the activity of HCV protease on the HCV PA-RNAP [1] | IC50 (HCV protease) | IC50 (wild-type HCV protease) | IC50 (HCV protease D168E [2]) | increase of the IC50 by the mutation (HCV protease D168E [3]) | increase of the IC50 by the mutation (HCV protease D168Y [4]) | IC50 (HCV protease D168Y [5]) |
| --- | --- | --- | --- | --- | --- | --- | --- |
| CC(C)(C)OC(=O)N[C@H]1CCCCC/C=C\[C@@H]2C[C@@]2(C(=O)NS(=O)(=O)C2CC2)NC(=O)[C@@H]2C[C@@H](OC(=O)N3Cc4cccc(F)c4C3)CN2C1=O [danoprevir] | in a dose-dependent manner | ~0.3 nM | 1.3 ± 0.1 nM | 38.9 ± 2.4 nM | ~30 fold | ~30 fold | 34.4 ± 2.8 nM |
| C=C[C@@H]1C[C@]1(NC(=O)[C@@H]1C[C@@H](Oc2ncc(OC)c3ccc(Cl)cc23)CN1C(=O)[C@@H](NC(=O)OC(C)(C)C)C(C)(C)C)C(=O)NS(=O)(=O)C1CC1 [asunaprevir] | in a dose-dependent manner |  |  |  | ~10 fold | 30 fold |  |
